{
  "source": "patent US20210236425A1",
  "about": "“NEW TREATMENT OF INTERSTITIAL LUNG DISEASES” (INIM PHARMA AB, priority 2018, published 2021)",
  "key": {"[1]": {"assay": "Dissolution kinetics in SLF with Tween 80, non-sink conditions", "type": "physicochemical", "conditions": "SLF with 1 wt % Tween 80, 80 mg dosage", "method": "Given that thalidomide rapidly recrystallizes in solution, an experiment was conducted in the presence of a surfactant to stabilize the dissolved drug.\nTween 80 (1 wt %; Sigma) was added in the dissolution bath in SLF media. The dosage was increased to 80 mg to investigate the dissolution kinetics at high drug concentration, to simulate dissolution in non-sink conditions."}, "[2]": {"assay": "Dissolution kinetics in SLF, USP2 apparatus", "type": "physicochemical", "conditions": "SLF pH 7.4, 37° C., 5 mg in 500 mL", "method": "The dissolution kinetics of the 3 different loading samples described in Example 5 were characterized in SLF (pH 7.4; made up with the salts NaCl, NaHCO3, KCl, MgCl2, CaCl2, Na2SO4, sodium citrate dihydrate, NaH2PO4 (all from Sigma)) at 37° C. using a USP2 dissolution apparatus with stirring speed 50 rpm. Free, unloaded thalidomide was used as control. Concentration of drug at set times after release was measured by a UV/vis spectrometer (Cecil 3021) at 220 nm.\nThe dose of thalidomide was calculated as 5 mg of thalidomide in 500 mL of SLF."}},
  "data": [
    {"molecule": "O=C1CCC(N2C(=O)c3ccccc3C2=O)C(=O)N1", "note": "(centres unmarked) [free drug, thalidomide]", "values": [
      {"measurement": "time to reach Cmax", "setting": "[1]", "result": 30, "unit": "min"},
      {"measurement": "time in which Cmax was achieved", "setting": "[2]", "result": 30, "unit": "min"}
    ]}
  ]
}
